Consider three molecules from patent US20240374763A1, “DIAGNOSIS AND MONITORING USING EXTRADOMAIN-B FIBRONECTIN TARGETED PROBES” (Case Western Reserve University, priority 2020, published 2024).

One data set concerns DLD1-DR cells. The settings on record: DLD1-DR cells developed with resistance to 5′-FU; cited from earlier work.
The test system of another data set is DLD-1 cells. As to conditions: cited from earlier work.
A short description of the next data set: Relaxivity measurements. It is filed as physicochemical. The settings on record: at 3 T, DPBS buffer. Here is the method:
The T1 and T2 values of MT218 and Gd(HP-DO3A) solutions were determined using a 3T MRS 3000 scanner (MR Solutions, Guildford, UK). Solutions of MT218 were prepared at concentrations of 0, 0.25, 0.5, 1, and 2 mM in DPBS buffer (Gibco, Gaithersburg, MD). T1 values were measured using an inversion recovery-fast low angle shot (IR-FLASH) sequence (i=10 ms, TE=4 ms, FA=8°, echoes/frames=128, FOV=40 mm×40 mm, slice thickness =2 mm, number of averages=1, time delay=4000 ms, sample period=200, matrix=256×128). T2 values were obtained using a multi-echo multi-slice (MEMS) sequence (TE=15 ms, […], echoes=10, FOV: 40 mm×40 mm, slice thickness=1 mm, number of averages=1, matrix=256×192). The r1 and r2 relaxivities were calculated from the slopes of 1/T1 and 1/T2 vs. Gd concentration plots, respectively.

A further data set concerns CAL27 tumors. The data set is described as follows: MRMI of OSCC flank xenografts, CAL27. As to conditions: gadoteridol 0.10 mmol/kg. It is filed as in vivo, mice. Here is the method: (§1) Animal experiments were performed under an animal protocol approved by the Institutional Animal Care and Use Committee (IACUC) at Case Western Reserve University (CWRU, Cleveland, OH, USA). Female 4-week-old athymic nude mice purchased from the Jackson Laboratory (Bar Harbor, ME, USA) were housed in the Animal Core Facility at CWRU. Anesthetized mice were subcutaneously inoculated in the right flank with 4×10^6 GFP/luciferase-expressing OSCC cells (n=5 per cell line) in 100 μL of a 1:1 mixture of Matrigel HC (Corning) and DPBS. Tumor size was monitored with caliper measurements. After 4 weeks of growth, tumors were sufficiently large for MRI experiments.
MRI experiments were performed with a 3T MRS-3000 system (MR Solutions, Surrey, UK). Tumor-bearing mice were imaged before and at 10, 20, and 30 minutes post-injection of the targeted contrast agent, MT218 (Molecular Theranostics, LLC, Cleveland, OH, USA), at a dose of 0.04 mmol/kg using a T1-weighted fast spin-echo axial sequence with respiratory gating (TR=305 ms, TE=11 ms, FOV=40×40 mm, slice thickness=1 mm, number of slices=15, Nav=2, matrix=256×248). […]
(§2) Images were exported in DICOM format and analyzed using FIJI. Contrast-to-noise ratio (CNR) for each time point was calculated as the difference between the mean tumor intensity and the mean muscle intensity, divided by the standard deviation of noise.

A further data set deals with HSC3 tumors. Briefly: MRMI of OSCC flank xenografts, HSC3. The data set is classed as in vivo, mice. As to conditions: gadoteridol 0.10 mmol/kg. Here is the method:
as §1
MRI experiments were performed with a 3T MRS-3000 system (MR Solutions, Surrey, UK). Tumor-bearing mice were imaged before and at 10, 20, […] spin-echo axial sequence with respiratory gating (TR=305 ms, TE=11 ms, FOV=40×40 mm, slice thickness=1 mm, number of slices=15, Nav=2, matrix=256×248). This protocol was repeated on the same mice 2 days later using the untargeted clinical agent gadoteridol at the clinical dose of 0.10 mmol/kg.
as §2

The next data set concerns SCC4 tumors. The data set is described as follows: MRMI of OSCC flank xenografts, SCC4. As to conditions: gadoteridol 0.10 mmol/kg. The data set is classed as in vivo, mice. The method, then: as §1
MRI experiments were performed with a 3T MRS-3000 system (MR Solutions, Surrey, UK). […] This protocol was repeated on the same mice 2 days later using the untargeted clinical agent gadoteridol at the clinical dose of 0.10 mmol/kg.
as §2

Data set [1] deals with Capan-1 flank tumor xenografts. Briefly: MRMI of Capan-1 flank tumor xenografts. It is filed as in vivo, mice. The settings on record: 0.1 mmol/kg; MT218 at 15 minutes post-injection, maintained at least 35 minutes; Gd(HP-DO3A) for the duration of the experiment. The method, then:
(§3) For flank xenograft models, 4×10^6 Capan-1 cells suspended in 100 μL of a 6 mg/mL Matrigel (Corning, Corning, NY) solution was injected subcutaneously into the flank of eight-week-old female nu/nu mice. The tumor bearing mice were imaged after tumor volumes exceeded 300 mm^3. For orthotopic intrapancreatic models, the pancreas of four-week-old female nu/nu mice were surgically exposed and 1×10^6 BxPC3-GFP-Luc or PANC-1-GFP-Luc cells suspended in 100 μL of an Matrigel solution (6 mg/mL) was injected into the pancreatic tissue. Prior to imaging, growth of tumor was verified by bioluminescence imaging with intraperitoneal injection of d-luciferin on IVIS Spectrum system (Perkin Elmer, Waltham, MA).
Flank tumor-bearing mice were anesthetized and a tail vein catheter inserted. MR image acquisition was performed on a 7T Biospin (Bruker, Billerica, MA) preclinical small animal scanner with a volume radiofrequency coil. Axial images were obtained using a multi-spin multi-echo (MSME) MRI sequence (500 ms TR, 8.1 ms TE, 900 FA, 4.50 cm×4.50 cm FOV, 1.50 mm slice thickness, 16 slices, 2 averages, 200×200 matrix, 0.0225×0.0225 cm/pixel resolution). Contrast agents were injected at a dose of 0.1 mmol/kg (100 μL) via the tail vein catheter, followed by a saline flush. Images of the tumors were acquired before contrast and at various time points after contrast administration. Gd(HP-DO3A) was used as a control.
Image files were exported and analyzed in Horus software. ROIs were drawn in the tumor, liver, kidney, and muscle. Muscle ROIs were taken from muscle, with other structures (liver, kidney, tumor) identified after comparison with published images and comparison with anatomical landmarks or bioluminescent imaging. Size of ROIs drawn for image analysis are summarized in Supplemental Table S1. The contrast-to-noise ratio of the tumor (CNR) was calculated using the following equation, where σ_noise is the standard deviation of intensities from an ROI drawn outside of the mouse body: […]

In data set [2] the test system is BxPC3-GFP-Luc intrapancreatic tumors. Briefly: MRMI of BxPC3-GFP-Luc intrapancreatic tumors. It is filed as in vivo, mice. The settings on record: 0.1 mmol/kg, 10 min post-injection. Here is the method: as §3
(§4) Mice bearing intrapancreatic tumors were anesthetized and a tail vein catheter was inserted. Image acquisition was performed on a MR Solutions 3T MRS 3000 scanner with a mouse radiofrequency coil. Axial images were obtained using a Fast Spin Echo (FSE) MRI sequence (305 ms TR, 11 ms TE, 90° F.A, 4 cm×4 cm FOV, 1 mm slice thickness, 10 slices, echo train length=4, echo spacing=11 ms, 4 averages, 256×256 matrix, […] cm/pixel resolution) with respiratory gating. Images were acquired before contrast and at different time points after contrast injection at a dose of 0.1 mmol/kg (100 μL). For competitive binding experiments, a 5:1 molar ratio of free ZD2 peptide to MT218 was injected in mice bearing intrapancreatic BxPC3 tumor xenografts (n=3) at a dose of 0.1 mmol MT218/kg (100 μL). Images obtained on the MR Solutions 3T scanner were normalized using the Surscalereader.exe (MR Solutions, Guildford, UK) program supplied.
Image files were exported and analyzed in Horus software. ROIs were drawn in the tumor, liver, kidney, and muscle. Muscle ROIs were taken from muscle, with other structures (liver, kidney, tumor) identified after comparison with published images and comparison with anatomical landmarks or bioluminescent imaging. Size of ROIs drawn for image analysis are summarized in Supplemental Table S1. The contrast-to-noise ratio of the tumor (CNR) was calculated using the following equation, where σ_noise is the standard deviation of intensities from an ROI drawn outside of the mouse body:
Image contrast was reported as fold enhancement of contrast to noise ratio of postcontrast images over precontrast images using Fold Enhancement=CNRpost/CNRpre. Statistical analysis of CNR was performed in Minitab Express (Minitab Inc, State College, PA). One-way ANOVA with Fisher Individual Tests for Differences of Means post-hoc testing was performed to determine statistical significance between greater than two means (p<0.05). Student's T test was used to determine statistical significance between two means (p<0.05).

Data set [3] concerns PANC-1-GFP-Luc intrapancreatic tumor xenografts. The data set is described as follows: MRMI of PANC-1-GFP-Luc intrapancreatic tumor xenografts. The data set is classed as in vivo, mice. The settings on record: 0.1 mmol/kg, 10 min postinjection. The method, then: as §3, §4
Image files were exported and analyzed in Horus software. ROIs were drawn in the tumor, liver, kidney, and muscle. […] The contrast-to-noise ratio of the tumor (CNR) was calculated using the following equation, where σ_noise is the standard deviation of intensities from an ROI drawn outside of the mouse body: […]

Data set [4] addresses extradomain-B fibronectin (EDB-FN) (human) (UniProt P02751). Briefly: cell-based or functional assay.
Data set [5] concerns the target T1, EDB fragment of FN (expressed in E. coli, labelled with NT-647) (UniProt P02751 1266-1356, limits assumed, labelled with amine-reactive dye NT-647).
T1 construct: domain: EDB fragment of FN
Briefly: microscale thermophoresis, NT-647-labelled EDB fragment at fixed concentration, MT218 titrated, 25 °C. Here is the method: (§5) The binding affinity of MT218 was determined with microscale thermophoresis (MST) using a Nanotemper™ Monolith NT.115 instrument (NanoTemper Technologies, Munich, Germany). The EDB fragment of FN was expressed in E. coli, purified, and labelled with amine-reactive dye NT-647. MT218 was dissolved into assay buffer (50 mM PBS w/0.05% Tween-20). This solution was further diluted using assay buffer to give a series of MT218 working solutions. Each MT218 working solution was then mixed with a fixed concentration of fluorescently labeled EDB fragment. The mixtures of MT218 and EDB were then loaded into standard capillaries, and MST measurements were performed at 25° C. using 20-80% light-emitting diode power and 40% infrared-laser power at varying concentrations of MT218.
MT218 is a small molecular conjugate of ZD2 peptide to a macrocyclic clinical MRI contrast agent Gd(HP-DO3A). […] The T₁ and T₂ relaxivities of MT218 were measured to be 6.07±1.13 s⁻¹ mM⁻¹ and 8.20±0.18 s⁻¹ mM⁻¹, respectively, at 3 T. T₁ and T₂ relaxivities of Gd(HP-DO3A) were measured to be 3.20±0.96 s⁻¹ mM⁻¹ and 5.12±0.18 s⁻¹ mM⁻¹, respectively, at 3 T.

Data set [6] concerns the target T1, EDB fragment of FN (expressed in E. …). The data set is described as follows: microscale thermophoresis, MT218 titrated against a fixed concentration of NT-647-labelled EDB fragment, 25 °C [panel B]. The method, then: as §5

No end group written: not given here.

T1 sequence (P02751 1266-1356 limits assumed): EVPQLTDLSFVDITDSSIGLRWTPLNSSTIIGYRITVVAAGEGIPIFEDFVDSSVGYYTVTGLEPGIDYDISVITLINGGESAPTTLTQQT
extradomain-B fibronectin (EDB-FN) (human), sequence (P02751 32-2477): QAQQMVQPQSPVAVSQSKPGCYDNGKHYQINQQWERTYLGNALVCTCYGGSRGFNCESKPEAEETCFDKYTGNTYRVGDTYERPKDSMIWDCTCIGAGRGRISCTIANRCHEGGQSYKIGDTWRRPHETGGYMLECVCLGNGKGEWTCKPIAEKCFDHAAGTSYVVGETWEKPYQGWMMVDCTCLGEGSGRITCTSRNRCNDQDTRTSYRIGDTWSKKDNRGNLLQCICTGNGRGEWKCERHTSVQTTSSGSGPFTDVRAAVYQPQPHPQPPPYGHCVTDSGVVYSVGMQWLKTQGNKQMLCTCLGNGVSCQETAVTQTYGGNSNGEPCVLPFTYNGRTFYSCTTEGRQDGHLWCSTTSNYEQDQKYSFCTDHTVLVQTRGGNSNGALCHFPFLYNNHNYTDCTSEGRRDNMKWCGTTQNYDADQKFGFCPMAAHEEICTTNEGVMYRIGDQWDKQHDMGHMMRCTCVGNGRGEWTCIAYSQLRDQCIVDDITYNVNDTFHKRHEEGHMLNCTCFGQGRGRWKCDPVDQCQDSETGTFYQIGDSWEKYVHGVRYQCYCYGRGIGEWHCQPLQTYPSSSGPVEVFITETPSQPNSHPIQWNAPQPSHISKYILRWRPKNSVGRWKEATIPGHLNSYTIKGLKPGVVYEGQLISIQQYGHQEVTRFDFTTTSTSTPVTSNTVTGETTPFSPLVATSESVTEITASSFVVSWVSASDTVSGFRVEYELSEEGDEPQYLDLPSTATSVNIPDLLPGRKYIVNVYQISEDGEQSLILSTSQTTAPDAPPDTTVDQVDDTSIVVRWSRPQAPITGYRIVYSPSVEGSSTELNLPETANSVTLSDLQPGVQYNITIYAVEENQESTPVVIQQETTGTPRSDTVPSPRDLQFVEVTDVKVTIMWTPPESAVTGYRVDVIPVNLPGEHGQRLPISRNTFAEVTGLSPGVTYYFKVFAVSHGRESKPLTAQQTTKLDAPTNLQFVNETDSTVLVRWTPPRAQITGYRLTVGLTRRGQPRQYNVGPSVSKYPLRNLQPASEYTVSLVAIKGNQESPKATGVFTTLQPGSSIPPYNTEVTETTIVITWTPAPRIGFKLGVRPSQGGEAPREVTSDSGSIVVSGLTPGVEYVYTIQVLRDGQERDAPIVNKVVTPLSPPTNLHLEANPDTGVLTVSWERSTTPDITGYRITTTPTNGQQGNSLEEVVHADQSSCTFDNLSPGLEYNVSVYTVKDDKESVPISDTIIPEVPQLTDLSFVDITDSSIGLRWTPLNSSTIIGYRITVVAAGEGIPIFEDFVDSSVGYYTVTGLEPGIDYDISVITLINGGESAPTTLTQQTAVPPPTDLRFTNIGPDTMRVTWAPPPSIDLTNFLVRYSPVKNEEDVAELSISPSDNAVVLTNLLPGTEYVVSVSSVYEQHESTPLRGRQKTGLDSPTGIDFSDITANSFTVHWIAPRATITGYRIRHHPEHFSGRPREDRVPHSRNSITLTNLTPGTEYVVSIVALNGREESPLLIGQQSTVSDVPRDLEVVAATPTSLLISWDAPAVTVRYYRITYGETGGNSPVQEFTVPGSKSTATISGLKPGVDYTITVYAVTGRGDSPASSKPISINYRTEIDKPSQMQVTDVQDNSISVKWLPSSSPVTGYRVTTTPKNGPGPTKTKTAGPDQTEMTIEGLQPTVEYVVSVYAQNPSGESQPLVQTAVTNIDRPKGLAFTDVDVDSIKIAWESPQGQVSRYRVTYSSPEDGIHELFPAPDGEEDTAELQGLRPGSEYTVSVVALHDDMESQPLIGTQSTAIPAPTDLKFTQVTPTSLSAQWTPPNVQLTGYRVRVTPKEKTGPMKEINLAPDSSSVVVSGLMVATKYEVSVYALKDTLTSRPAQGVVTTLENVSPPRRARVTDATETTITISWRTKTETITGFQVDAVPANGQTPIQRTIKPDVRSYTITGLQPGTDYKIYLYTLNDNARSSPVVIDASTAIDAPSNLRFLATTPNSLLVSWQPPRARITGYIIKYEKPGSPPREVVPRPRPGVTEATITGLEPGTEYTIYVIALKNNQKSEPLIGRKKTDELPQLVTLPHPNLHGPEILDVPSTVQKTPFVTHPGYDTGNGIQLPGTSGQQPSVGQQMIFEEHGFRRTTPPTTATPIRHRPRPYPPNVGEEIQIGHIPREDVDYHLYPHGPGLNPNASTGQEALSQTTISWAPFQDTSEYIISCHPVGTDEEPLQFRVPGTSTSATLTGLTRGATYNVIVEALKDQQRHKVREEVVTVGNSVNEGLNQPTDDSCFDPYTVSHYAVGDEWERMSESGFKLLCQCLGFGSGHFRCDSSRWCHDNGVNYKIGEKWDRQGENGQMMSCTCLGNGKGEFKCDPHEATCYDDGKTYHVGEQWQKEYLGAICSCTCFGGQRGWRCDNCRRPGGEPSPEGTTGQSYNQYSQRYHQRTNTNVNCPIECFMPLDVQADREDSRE

`O=c1[nH]cc(F)c(=O)[nH]1` [5′-FU, 5′-fluorouracil]: the IC50 is 211 µM in the data set on DLD1-DR cells and 2.5 µM in the data set on DLD-1 cells.

In the case of “Gd(HP-DO3A) [gadoteridol, reference compound]”, the T1 relaxivity in the data set “Relaxivity measurements” amounted to 3.20 ± 0.96 s⁻¹ mM⁻¹. In addition, in the data set “Relaxivity measurements”, the T2 relaxivity was found to be 5.12 ± 0.18 s⁻¹ mM⁻¹. Further, the “average maximum enhancement (CNR)” value worked out at 2.27±0.18 with CAL27 tumors, 2.18±0.07 in the data set on HSC3 tumors and 2.57±0.28 in the data set on SCC4 tumors. In data set [1], the “increase of contrast to noise ratio (CNR)” value stood at 1.77 fold. In addition, the “tumor CNR increase” value in data set [2] was “approximately 2.5 fold”. In data set [3], the “intratumoral CNR increase” value amounted to 2.35 fold.

B1: ZD2-N3-Gd(HP-DO3A) (MT218) (peptide)
peptide: TVRTSAD
modifications: also: conjugated to Gd(HP-DO3A) by click reaction of alkynyl-ZD2 with N3-Gd(HP-DO3A), residue of attachment not given here, Gd complex
notes: Small peptide conjugate of the clinical contrast agent gadoteridol; also called EDB-FN-targeted contrast agent; ZD2 targeted MRI contrast agent
In data set [4], B1 returned a tumor CNR increase (MRMI) in the BxPC3-GFP-Luc intrapancreatic model, MT218 co-injected with an excess of free ZD2 peptide of 2.5 fold and a tumor CNR increase (MRMI) in the BxPC3-GFP-Luc intrapancreatic model, MT218 without the free peptide of 4.5 fold. Moreover, the Kd in [5] stood at 3.2 µM. For the same molecule, in data set [6], the “EC50 (read off the curve)” value was about 3 µM.
